The text below walks through data of PMC12114375, “Discovery of Hydrazineyl Amide Derivative of Pseudolaric Acid B for Reprogramming Tumor-Associated Macrophages Against Tumor Growth” (Molecules, 2025).

The test system of this assay is M2-like polarization of BMDMs (CD206, CD86). As to the kind of experiment: Macrophage phenotype analysis by flow cytometry (CD206, CD86) in BMDMs. The conditions noted are these: CSF-1-differentiated BMDMs, IL-4 and IL-13, 48 h, different concentrations. The assay is classed as cell-based, mouse. The protocol:
We also extended the test to primary murine macrophages derived from bone marrow (BMDMs), which were cultured in vitro with recombinant mouse M-CSF for 6 days. The BMDMs were then stimulated with IL-4/IL-13, leading to their transformation into M2-like pro-tumoral macrophages. This transformation was characterized by an increase in both ARG1 and CD206 expression and a decrease in both NOS2 and MHC II expression. […] Subsequently, we assessed the capacity of compound 12 to inhibit the M2-like polarization of macrophages using CSF-1-differentiated mouse BMDMs. These cells were treated with IL-4 and IL-13 for 48 h, and the expression levels of CD206, an M2-type marker, and CD86, an M1-type marker, were analyzed via flow cytometry. […]
BMDMs were collected and stained with a fluorescent antibody or the matching isotype controls for 30 min at room temperature and then tested using a BD CytoFLEX LX (Beckman, CA, USA). […] Data were analyzed using FlowJo10.4 software.
Figure 2 Compound 12 inhibits the M2-like polarized phenotype of macrophages. […] The expression levels of the markers CD206 and CD86 on induced macrophages were determined by flow cytometry, and the mean fluorescence intensity (MFI) was analyzed with FlowJo (C), or the cells were lysed and immunoblotted to detect the indicated proteins (D). […]

As for `COC(=O)C1=CC[C@@]23CC[C@@H]([C@@](C)(/C=C/C=C(\C)C(=O)NNCCO)OC2=O)[C@@]3(OC(C)=O)CC1` [compound 12, Methyl(3R,4S,4aS,9aR)-4a-acetoxy-3-((1E,3E)-5-(2-(2-hydroxyethyl)hydrazineyl)-4-methyl-5-oxopenta-1,3-dien-1-yl)-3-methyl-1-oxo-3,4,4a,5,6,9-hexahydro-1H-4,9a-ethanocyclohepta[c]pyran-7-carboxylate], the “CD86 expression (MFI, flow cytometry)” value is listed as “increase in CD86 expression” and the “CD206 expression (MFI, flow cytometry)” value is “decrease in CD206 expression”.
